In US20230413879A1, “FOOD COMPRISING ISOSTEVIOL AND USES THEREOF” (ISOFIRMS APS, priority 2020, published 2023):
Entries after “also recorded” stand apart in the source; their conditions may differ.

What was measured:
pigs [1] = assay: Pig feeding trial: growth rate / weight gain (Example 2); assay type: in vivo, pig (Danish Landrace); conditions: for Average weight (kg) start: baseline; for Net growth vs. CG group / Net growth vs. CPG group: index; for Net growth vs. CG group: CG = 100; for Net growth vs. CPG group: CPG = 100; for Average weight (kg) Increase: start to week 8
Source text: Isosteviol in 97% purity was produced in-house. Isosteviol may be produced by acid-catalysed extraction of Stevia rebaudiana L. Preferably at a pH below 5.5.
The pigs were of the type Danish Landrace Age approx. 90 days, gender equally distributed. They weighted approximately 30 kg when delivered and had been fed with a normal conventional diet for piglets until delivery.
• Standard feed is home-blended by the farmer with the ratio: Wheat 55 w %, Barley 35 w %, Rye 10 w %. • Nutritional profile/100 g: • Nutritional content: 1313 KJ • Fat: 1.8 g • Carbohydrate: 68.9 g • Of which sugar: 1.4 g • Fibres: 15.8 g • Protein: 12.8 g • Supplementary feed: The Supplementary feed was distributed as a “Semi Soja 1920” composition (from DLG), which is a supplementary feed high in protein, carbohydrate, and free amino acids.
(§1) The pigs were randomly distributed in the five pigsties when trial started. Food and water were provided ad libitum (see Table 2). The farmer was not aware of which groups received which additional feed, since all feeds were masked to look the same and the CG group received a bag similar to the other groups.
Every other week the pigs were weighed, and their growth were noted. The pigs were attended too equally.
Timeframe: Trial started after delivery of the 30 kg pigs and was planned to end when the pigs weighed around 115-118 kg, the weight at trial-end was however around 120 kg (11 weeks). Total time for production is 72 days.
The food intake by each pig during the trial is described in Table 3.

pigs [2] = assay: Overall uptake of feed judged by generated manure and stool analysis (Example 3); assay type: in vivo, pig (Danish Landrace)
Protocol: See example 1. Overall uptake of feed was determined by the amount of generated manure by the different groups.

pigs [3] = assay: Stool firmness / diarrhea in pigs (Example 4); assay type: in vivo, pig (Danish Landrace); conditions: groups receiving isosteviol (IPG and IG) compared to control groups (CG and CPG)
pigs [4] = assay: Meat (muscle) percentage at slaughter, ultrasound Autoform (Example 5); assay type: in vivo, pig (Danish Landrace); conditions: FIG. 5-6
Protocol: See also previous examples.
Meat percentage is measured when the pig is dead. The body is prepared and send to an automatic equipment that measures fat/meat thicknesses based on ultrasound measurements called an Autoform. The equipment is certified by third party and the meat percentages in this study was performed by Tican A/S at the slaughterhouse in Brdrup.
Increased meat (muscle) percentage can also be considered to correspond to an increased muscle/fat ratio.

pigs [5] = assay: Turnover rate: days to grow pigs from approx. 30 kg to around 118 kg (Example 6); assay type: in vivo, pig (Danish Landrace)
Source text: See also previous examples. Turnover rates of the pigs was defined by the time (days) it takes to grow the pigs from approx. 30 kg to around 118 kg. Thus, turnover time is the time it takes to grow the pigs from approx. 30kg to their optimum slaughter weight. The faster the turnover rate is, the faster the pigs goes through the process and consequently this is the determination factor on how many pigs the farmer can deliver to the slaughterhouse within a year.

piglets [6] = assay: Larger pig trial: body weight / weight gain (Example 8); assay type: in vivo, pig (DanBred x Duroc); conditions: for weight gain versus negative control: week 3-6 and week 1-6 / 42 days trial; for Body weight [kg] Mean SD 0 / Body weight [kg] Median SD 0: baseline
Source text: (§2) Trial with 360 barrows and female piglets (DanBred×Duroc; initial BW of about 6.8 kg).
(§3) Age when trial started approx. 7 days and trial ended after 42 days. They weighed approx. 7 kg initially and have been feed as per normal conventional diet for piglets until delivery.
(§4) Basal diets as per standard industry feed: • Prestarter diet for post-weaning piglets: 7.0 to 9.0 kg BW • Starter diet for piglets: 9.0 to 15.0 kg BW • Grower diet for piglets: 15.0 to 30.0-35.0 kg BW.
(§5) Isosteviol >97% was produced in-house. Isosteviol may be produced by acid-catalysed extraction of Stevia rebaudiana L. Preferably at a pH below 5.5.
(§6) • Negative control: No isosteviol • Treatment 1 (IS10): 1% isosteviol mg/kg Bodyweight (BW) • Treatment 2 (IS13): 1.3% isosteviol mg/kg Bodyweight (BW)
(§7) The pigs were fed standard diets supplemented with Isosteviol as outlined above.
(§8) IsoSteviol Premix 0.71% was produced in Vilofoss Premix factory, and included at 0.29/0.37, 0.25/0.33% (by weight) in complete feed to reach 1/1.3 mg IsoSteviol/kg BW (bodyweight).
as §1, with “piglets” for “pigs”, “10” for “the five”, “pigsties per treatment” for “pigsties”, “libitum.” for “libitum (see Table 2).”, “control” for “CG”

piglets [7] = assay: Larger pig trial: feed conversion ratio (FCR) (Example 8); assay type: in vivo, pig (DanBred x Duroc); conditions: for Feed conversion ratio (FCR) versus negative control: 42 days trial
Source text: In this regard, the food/feed conversion ratio (FCR) is defined as the ratio between the amount of food eaten by an animal to the output produced by the animal (e.g. amount of meat produced by a pig, amount of milk produced by a cow etc.). Food that is efficiently taken up and converted by the body of the animal to said output obtains a FCR-value lower than a food having a low uptake in the animal. Thus, lower FCR-values are preferred for most applications. In some sectors, feed efficiency, which is the output divided by the input (i.e. the inverse of FCR), is used.
as §2, §3, §4, §5, §6, §7, §8
as §1, with “piglets” for “pigs”, “10” for “the five”, “pigsties per treatment” for “pigsties”, “libitum.” for “libitum (see Table 2).”, “control” for “CG”

broiler chickens = conditions: cited from earlier work
[8] = IG group (standard feed incl. standard dose of supplementary feed + isosteviol 1 mg/kg/day), 8 pigs
[9] = IPG group (standard feed + additional 10 w % supplementary feed + isosteviol 1 mg/kg/day), 9 pigs
[10] = IG group (isosteviol only, 1 mg/kg/day)
[11] = IPG group (additional 10 w % supplementary feed + isosteviol 1 mg/kg/day)
[12] = Treatment 1 (IS10), 1 mg IsoSteviol/kg BW in feed
[13] = Treatment 2 (IS13), 1.3 mg IsoSteviol/kg BW in feed

C[C@@]12CC[C@@H]3[C@@](CC[C@H]4[C@@]3(C)CCC[C@@]4(C)C(=O)O)(CC1=O)C2 [isosteviol]
growth exceeding that of control group (CG) (pigs [1]; FIG. 1, Isosteviol and protein group (IPG) vs CG at index 100): 4.0%
growth exceeding that of control+protein group (CPG) (pigs [1]; FIG. 2, Isosteviol and protein group (IPG) vs CPG at index 100): 5.8%
growth exceeding that of control group (CG) (pigs [1]; FIG. 3, Isosteviol group (IG) vs CG at index 100): 0.8%
Average weight (kg) week 8 (pigs [1]; [8]): 99.50 kg
weight gain compared to the Control (CG) group (pigs [1]; IG group, FIG. 3, in words): clear increased weight gain
Average weight (kg) week 8 (pigs [1]; [9]): 99.78 kg
weight gain compared to the control group (CG) (pigs [1]; IPG group, FIG. 1, in words): clear increased weight gain
weight gain compared to the CPG group (pigs [1]; IPG group, FIG. 2, in words): clear increased weight gain
Average weight (kg) start (pigs [1]; [8]): 35.00 kg
Average weight (kg) start (pigs [1]; [9]): 33.11 kg
Net growth vs. CG group (pigs [1]; [10]): 100.8
Net growth vs. CG group (pigs [1]; [11]): 104.0
Net growth vs. CPG group (pigs [1]; [10]): 102.71
Net growth vs. CPG group (pigs [1]; [11]): 105.80
Average weight (kg) Increase (pigs [1]; [10]): 64.50 kg
Average weight (kg) Increase (pigs [1]; [11]): 66.67 kg
appearance of pigs noted by the farmer (muscle to fat ratio) (pigs [2]; IPG group compared to the control group): leaner and more firmly meaty
overall uptake of the feed (amount of generated manure) (pigs [2]; isosteviol added to feed (IPG) vs CPG group, FIG. 4): higher overall uptake of the feed
decrease of the amount of nutritional ingredients in stool (pigs [2]; preliminary stool analysis, considering the quantity of manure discharged, data not shown): approx. 6%
stool firmness (pigs [3]): more firm; also recorded: much firmer stool
meat (muscle) percentage / muscle/fat ratio (pigs [4]; IG group (isosteviol alone) vs control): very significant increase of the muscle weight; also recorded: increase
meat (muscle) percentage / muscle/fat ratio (pigs [4]; IPG group (isosteviol + supplementary feed) vs control): increased their muscle/fat ratio to a significant degree; also recorded: increase
increase of yearly turnover in production vs CG group (pigs [5]; IG group, data not shown): 0.1%
increase of yearly turnover rate in production vs CG group (pigs [5]; IPG group, FIG. 8): around 4.8%
weight gain versus negative control (piglets [6]; Treatment 1 (+Isosteviol), FIG. 10, p<0.0023): significant higher weight gain; also recorded: Observed relevant superiority, significant proven
Body weight [kg] Mean SD 10 (piglets [6]; [12]): 11.568 kg
Body weight [kg] Mean SD 21 (piglets [6]; [12]): 15.783 kg
Body weight [kg] Mean SD 42 (piglets [6]; [12]): 32.660 kg
Body weight [kg] Median SD 10 (piglets [6]; [12]): 11.550 kg
Body weight [kg] Median SD 21 (piglets [6]; [12]): 15.900 kg
Body weight [kg] Median SD 42 (piglets [6]; [12]): 33.200 kg
weight gain versus negative control (piglets [6]; Treatment 2 (+Isosteviol), FIG. 11, p<0.0158): significant higher weight gain; also recorded: Observed relevant superiority, significant proven
Body weight [kg] Mean SD 10 (piglets [6]; [13]): 11.574 kg
Body weight [kg] Mean SD 21 (piglets [6]; [13]): 15.558 kg
Body weight [kg] Mean SD 42 (piglets [6]; [13]): 32.293 kg
Body weight [kg] Median SD 10 (piglets [6]; [13]): 11.500 kg
Body weight [kg] Median SD 21 (piglets [6]; [13]): 15.600 kg
Body weight [kg] Median SD 42 (piglets [6]; [13]): 32.000 kg
Body weight [kg] Mean SD 0 (piglets [6]; [12]): 7.868 kg
Body weight [kg] Median SD 0 (piglets [6]; [12]): 7.850 kg
Body weight [kg] Mean SD 0 (piglets [6]; [13]): 7.865 kg
Body weight [kg] Median SD 0 (piglets [6]; [13]): 7.875 kg
Feed conversion ratio (FCR) versus negative control (piglets [7]; Treatment 1 (+Isosteviol), FIG. 12): significant decreased feed conversion ratio; also recorded: More than relevant superiority
Feed Conversion Ratio (FCR) Mean SD 42 (piglets [7]; [12]): 1.399
Feed Conversion Ratio (FCR) Median SD 42 (piglets [7]; [12]): 1.380
Feed conversion ratio (FCR) versus negative control (piglets [7]; Treatment 2 (+Isosteviol), FIG. 13): significant decreased feed conversion ratio; also recorded: More than relevant superiority
Feed Conversion Ratio (FCR) Mean SD 42 (piglets [7]; [13]): 1.393
Feed Conversion Ratio (FCR) Median SD 42 (piglets [7]; [13]): 1.360

C=C1C[C@@]23CC[C@H]4[C@@](C)(CCC[C@@]4(C)C(=O)O[C@@H]4O[C@H](CO)[C@@H](O)[C@H](O)[C@H]4O)[C@@H]2CC[C@]1(O[C@@H]1O[C@H](CO)[C@@H](O)[C@H](O)[C@H]1O[C@@H]1O[C@H](CO)[C@@H](O)[C@H](O)[C@H]1O)C3 [stevioside]
effect on the broilers (broiler chickens; fed orally to broiler chickens): no positive effect
abdominal fat content of the chicken (broiler chickens; in a diet for broilers): significantly increased
